From ChEMBL document CHEMBL3091428, “Synthesis and initial biological evaluation of substituted 1-phenylamino-2-thio-4,5-dimethyl-1H-imidazole derivatives” (Bioorg Med Chem Lett, 2013)
Values after ≈ are worked out from the molar mass of the structure shown.

Legend:
Type in all cases: functional
[1] = tested on: Pseudomonas aeruginosa; assay: Antimicrobial activity against Pseudomonas aeruginosa ATCC 27853 after 24 hrs by broth microdilution method; conditions: ATCC 27853, 24 h
[2] = tested on: Enterococcus faecalis; assay: Antimicrobial activity against Enterococcus faecalis ATCC 29212 after 24 hrs by broth microdilution method; conditions: ATCC 29212, 24 h
[3] = tested on: Staphylococcus aureus; assay: Antimicrobial activity against Staphylococcus aureus ATCC 25923 after 24 hrs by broth microdilution method; conditions: ATCC 25923, 24 h
[4] = tested on: Pichia kudriavzevii; assay: Antimicrobial activity against Candida krusei ATCC 6258 after 24 hrs by broth microdilution method; conditions: ATCC 6258, 24 h
[5] = tested on: Listeria monocytogenes; assay: Antimicrobial activity against Listeria monocytogenes ATCC 19115 after 24 hrs by broth microdilution method; conditions: ATCC 19115, 24 h
[6] = tested on: Nakaseomyces glabratus; assay: Antimicrobial activity against Candida glabrata ATCC 90030 after 24 hrs by broth microdilution method; conditions: ATCC 90030, 24 h
[7] = tested on: Candida albicans; assay: Antimicrobial activity against Candida albicans ATCC 90028 after 24 hrs by broth microdilution method; conditions: ATCC 90028, 24 h
[8] = tested on: Escherichia coli; assay: Antimicrobial activity against Escherichia coli ATCC 25922 after 24 hrs by broth microdilution method; conditions: ATCC 25922, 24 h
[9] = tested on: Enterococcus faecalis; assay: Antimicrobial activity against Enterococcus faecalis ATCC 51299 after 24 hrs by broth microdilution method; conditions: ATCC 51299, 24 h
[10] = tested on: Klebsiella pneumoniae; assay: Antimicrobial activity against Klebsiella pneumoniae ATCC 13883 after 24 hrs by broth microdilution method; conditions: ATCC 13883, 24 h
[11] = tested on: Escherichia coli; assay: Antimicrobial activity against Escherichia coli ATCC 35218 after 24 hrs by broth microdilution method; conditions: ATCC 35218, 24 h

| MIC [1] | MIC [2] | MIC [3] | MIC [4] | MIC [5] | MIC [6] | MIC [7] | MIC [8] | MIC [9] | MIC [10] | MIC [11] | SMILES |
| --- | --- | --- | --- | --- | --- | --- | --- | --- | --- | --- | --- |
| 1600 µg/mL (≈ 4100 µM) | 1600 µg/mL (≈ 4100 µM) | 800 µg/mL (≈ 2050 µM) | 800 µg/mL (≈ 2050 µM) | 3200 µg/mL (≈ 8210 µM) | 1600 µg/mL (≈ 4100 µM) | 800 µg/mL (≈ 2050 µM) | 1600 µg/mL (≈ 4100 µM) | 800 µg/mL (≈ 2050 µM) | 800 µg/mL (≈ 2050 µM) | 1600 µg/mL (≈ 4100 µM) | Cc1nc(SCC(=O)c2ccc(F)cc2)n(Nc2ccc(Cl)cc2)c1C |
| 400 µg/mL (≈ 984 µM) | 400 µg/mL (≈ 984 µM) | 800 µg/mL (≈ 1970 µM) | 800 µg/mL (≈ 1970 µM) | 800 µg/mL (≈ 1970 µM) | 400 µg/mL (≈ 984 µM) | 800 µg/mL (≈ 1970 µM) | 800 µg/mL (≈ 1970 µM) | 800 µg/mL (≈ 1970 µM) | 800 µg/mL (≈ 1970 µM) | 800 µg/mL (≈ 1970 µM) | Cc1nc(SCC(=O)c2cccc(Cl)c2)n(Nc2ccc(Cl)cc2)c1C |
| 400 µg/mL (≈ 1010 µM) | 400 µg/mL (≈ 1010 µM) | 200 µg/mL (≈ 503 µM) | 50 µg/mL (≈ 126 µM) | 400 µg/mL (≈ 1010 µM) | 800 µg/mL (≈ 2010 µM) | 200 µg/mL (≈ 503 µM) | 800 µg/mL (≈ 2010 µM) | 800 µg/mL (≈ 2010 µM) | 400 µg/mL (≈ 1010 µM) | 200 µg/mL (≈ 503 µM) | COc1ccc(C(=O)CSc2nc(C)c(C)n2Nc2ccccc2)cc1OC |
| 400 µg/mL (≈ 1130 µM) | 400 µg/mL (≈ 1130 µM) | 400 µg/mL (≈ 1130 µM) | 200 µg/mL (≈ 563 µM) | 400 µg/mL (≈ 1130 µM) | 400 µg/mL (≈ 1130 µM) | 400 µg/mL (≈ 1130 µM) | 800 µg/mL (≈ 2250 µM) | 400 µg/mL (≈ 1130 µM) | 400 µg/mL (≈ 1130 µM) | 400 µg/mL (≈ 1130 µM) | Cc1nc(SCC(=O)c2cccc(F)c2)n(Nc2ccccc2)c1C |
| 400 µg/mL (≈ 984 µM) | 800 µg/mL (≈ 1970 µM) | 800 µg/mL (≈ 1970 µM) | 400 µg/mL (≈ 984 µM) | 800 µg/mL (≈ 1970 µM) | 800 µg/mL (≈ 1970 µM) | 800 µg/mL (≈ 1970 µM) | 800 µg/mL (≈ 1970 µM) | 800 µg/mL (≈ 1970 µM) | 800 µg/mL (≈ 1970 µM) | 800 µg/mL (≈ 1970 µM) | Cc1nc(SCC(=O)c2ccc(Cl)cc2)n(Nc2ccc(Cl)cc2)c1C |
| 800 µg/mL (≈ 2180 µM) | 800 µg/mL (≈ 2180 µM) | 800 µg/mL (≈ 2180 µM) | 800 µg/mL (≈ 2180 µM) | 800 µg/mL (≈ 2180 µM) | 800 µg/mL (≈ 2180 µM) | 800 µg/mL (≈ 2180 µM) | 800 µg/mL (≈ 2180 µM) | 100 µg/mL (≈ 272 µM) | 800 µg/mL (≈ 2180 µM) | 800 µg/mL (≈ 2180 µM) | COc1ccc(Nn2c(SCC(=O)c3ccccc3)nc(C)c2C)cc1 |
| 800 µg/mL (≈ 1980 µM) | 1600 µg/mL (≈ 3970 µM) | 800 µg/mL (≈ 1980 µM) | 400 µg/mL (≈ 991 µM) | 800 µg/mL (≈ 1980 µM) | 800 µg/mL (≈ 1980 µM) | 400 µg/mL (≈ 991 µM) | 800 µg/mL (≈ 1980 µM) | 800 µg/mL (≈ 1980 µM) | 800 µg/mL (≈ 1980 µM) | 800 µg/mL (≈ 1980 µM) | COc1ccc(Nn2c(SCC(=O)c3ccc(F)c(F)c3)nc(C)c2C)cc1 |
| 800 µg/mL (≈ 2280 µM) | 400 µg/mL (≈ 1140 µM) | 800 µg/mL (≈ 2280 µM) | 400 µg/mL (≈ 1140 µM) | 800 µg/mL (≈ 2280 µM) | 400 µg/mL (≈ 1140 µM) | 800 µg/mL (≈ 2280 µM) | 800 µg/mL (≈ 2280 µM) | 800 µg/mL (≈ 2280 µM) | 400 µg/mL (≈ 1140 µM) | 200 µg/mL (≈ 569 µM) | Cc1ccc(Nn2c(SCC(=O)c3ccccc3)nc(C)c2C)cc1 |
| 400 µg/mL (≈ 907 µM) | 50 µg/mL (≈ 113 µM) | 800 µg/mL (≈ 1810 µM) | 400 µg/mL (≈ 907 µM) | 200 µg/mL (≈ 454 µM) | 400 µg/mL (≈ 907 µM) | 800 µg/mL (≈ 1810 µM) | 800 µg/mL (≈ 1810 µM) | 800 µg/mL (≈ 1810 µM) | 800 µg/mL (≈ 1810 µM) | 200 µg/mL (≈ 454 µM) | Cc1nc(SCC(=O)c2ccc(Cl)c(Cl)c2)n(Nc2ccc(Cl)cc2)c1C |
| 800 µg/mL (≈ 1990 µM) | 800 µg/mL (≈ 1990 µM) | 800 µg/mL (≈ 1990 µM) | 400 µg/mL (≈ 995 µM) | 800 µg/mL (≈ 1990 µM) | 800 µg/mL (≈ 1990 µM) | 800 µg/mL (≈ 1990 µM) | 800 µg/mL (≈ 1990 µM) | 800 µg/mL (≈ 1990 µM) | 800 µg/mL (≈ 1990 µM) | 800 µg/mL (≈ 1990 µM) | COc1ccc(Nn2c(SCC(=O)c3cccc(Cl)c3)nc(C)c2C)cc1 |
| 400 µg/mL (≈ 1130 µM) | 400 µg/mL (≈ 1130 µM) | 800 µg/mL (≈ 2250 µM) | 200 µg/mL (≈ 563 µM) | 400 µg/mL (≈ 1130 µM) | 400 µg/mL (≈ 1130 µM) | 400 µg/mL (≈ 1130 µM) | 800 µg/mL (≈ 2250 µM) | 400 µg/mL (≈ 1130 µM) | 400 µg/mL (≈ 1130 µM) | 400 µg/mL (≈ 1130 µM) | Cc1nc(SCC(=O)c2ccc(F)cc2)n(Nc2ccccc2)c1C |
| 800 µg/mL (≈ 2070 µM) | 400 µg/mL (≈ 1040 µM) | 800 µg/mL (≈ 2070 µM) | 200 µg/mL (≈ 518 µM) | 800 µg/mL (≈ 2070 µM) | 400 µg/mL (≈ 1040 µM) | 400 µg/mL (≈ 1040 µM) | 400 µg/mL (≈ 1040 µM) | 400 µg/mL (≈ 1040 µM) | 800 µg/mL (≈ 2070 µM) | 800 µg/mL (≈ 2070 µM) | Cc1ccc(Nn2c(SCC(=O)c3ccc(Cl)cc3)nc(C)c2C)cc1 |
| 800 µg/mL (≈ 1990 µM) | 400 µg/mL (≈ 995 µM) | 400 µg/mL (≈ 995 µM) | 400 µg/mL (≈ 995 µM) | 400 µg/mL (≈ 995 µM) | 400 µg/mL (≈ 995 µM) | 400 µg/mL (≈ 995 µM) | 400 µg/mL (≈ 995 µM) | 800 µg/mL (≈ 1990 µM) | 400 µg/mL (≈ 995 µM) | 800 µg/mL (≈ 1990 µM) | COc1ccc(Nn2c(SCC(=O)c3ccc(Cl)cc3)nc(C)c2C)cc1 |

| SMILES | MIC [1] | MIC [2] | MIC [3] | MIC [4] | MIC [5] | MIC [6] | MIC [7] | MIC [8] | MIC [9] | MIC [10] | MIC [11] |
| --- | --- | --- | --- | --- | --- | --- | --- | --- | --- | --- | --- |
| O=C(N[C@H](CO)[C@H](O)c1ccc([N+](=O)[O-])cc1)C(Cl)Cl [CHLORAMPHENICOL] | 50 µg/mL (≈ 155 µM) | 12.5 µg/mL (≈ 38.7 µM) | 50 µg/mL (≈ 155 µM) |  | 50 µg/mL (≈ 155 µM) |  |  | 50 µg/mL (≈ 155 µM) | 100 µg/mL (≈ 309 µM) | 50 µg/mL (≈ 155 µM) | 25 µg/mL (≈ 77.4 µM) |
